{"source": "patent US20260355199A1", "about": "“COMPOSITIONS AND METHODS FOR TREATING OR PREVENTING NONALCOHOLIC STEATOHEPATITIS (NASH), ANOREXIA, DEPRESSION, ENDOMETRIOSIS, AND OTHER DISEASES OR DISORDERS” (priority 2022, published 2026)", "key": {"[1]": {"tested_on": "MDMs", "assay": "TUNEL assay in human MDMs", "format": "cell-based", "details": "10 μM, 48 h", "procedure": "For TET3 expression restoration experiments, cells seeded in 24-well plates were infected with Ad-GFP or Ad-TET3 at 4000 gc/cell. Following 16 h of infection, vehicle or Bobcat339 were added at a final concentration of 10 μM. Protein and RNA were isolated 48 hours later and analyzed.\nThese were performed using the In Situ Cell Death Detection Kit (Sigma Aldrich, 12156792910). Briefly, cells were fixed with 4% paraformaldehyde in PBS for 1 h at RT and rinsed with PBS, followed by permeabilization with 0.1% Triton X-100 in 0.1% sodium citrate for 2 min on ice. TUNEL reaction mixture was added and incubation was carried out at 37 °C for 60 min. DAPI was added to counter-stain the cells for 1 min. The slides were coverslipped and scoped using a Keyence BZ-X700 fluorescence microscope."}, "[2]": {"tested_on": "murine model of endometriosis", "assay": "Surgically induced murine model of endometriosis", "format": "in vivo, mouse", "procedure": "Female mice were randomly divided into three groups (sham, endometriosis treated with vehicle, and endometriosis treated with Bobcat) and subjected to surgery (week 1) to induce endometriosis or sham (FIG. 22A). The first once-a-week intraperitoneal (i.p.) injection of Bobcat339 (or vehicle) at a dose of 2.5 mg/kg was performed on week 3, followed by euthanasia and blood and tissue collection at week 9.\nGiven that Bobcat339 degrades TET3 inducing apoptosis (FIG. 26) and that myeloid-specific Tet3 ablation attenuates endometriosis (FIG. 28A through FIG. 28C), studies were performed to test whether Bobcat339 would elicit therapeutic effects on endometriosis. Thus, female mice were randomly divided into three groups (sham, endometriosis treated with vehicle, and endometriosis treated with Bobcat339) and subjected to surgery (week 0) to induce endometriosis or sham (FIG. 28D). The first once-a-week intraperitoneal (i.p.) injection of Bobcat339 (or vehicle) at a dose of 2.5 mg/kg body weight was performed on week 2, followed by euthanasia and blood and tissue collection on week 8. The dose of 2.5 mg/kg was chosen based on the previous studies showing no discernible liver toxicity in mice (Lv et al., 2023, Proc Natl Acad Sci USA, In press).\nAs Bobcat339 destabilized TET3, thus promoting macrophage apoptosis, additional studies tested whether Bobcat339 inhibits endometriosis (FIG. 25). Female mice were randomly divided into three groups (sham, endometriosis treated with vehicle, and endometriosis treated with Bobcat339) and subjected to surgery (week 0) to induce endometriosis or sham (FIG. 26). The first once-a-week intraperitoneal (i.p.) injection of Bobcat339 (or vehicle) at a dose of 3 mg/kg body weight was performed on week 2, followed by euthanasia and sample collection on week 8.\nBobcat339 powder was freshly dissolved in DMSO at a concentration of 50 mg/mL and filtered through a 0.22 micron filter. It was further diluted with 1×PBS to a final concentration of 0.5 mg/mL before injections. Mice were injected intraperitoneally with Bobcat339 at 2.5 mg/kg body weight.\nBriefly, uterus horns were removed from wild-type female donor mice, opened longitudinally and cut into fragments of 3 mm. Two uterine segments were sutured to each right and left parietal peritoneum of recipient mice (6-7 weeks old) with absorbable suture. Sham surgeries were performed for sham group, using the same surgical procedure without the introduction of extraneous uterine tissue. The experimental model was allowed to develop for more than 4 weeks. Development of the model was confirmed by opening the abdominal cavity and measuring the size of endometriotic lesions both macroscopically and histologically."}, "[3]": {"tested_on": "let-7a", "assay": "let-7a miRNA in endometriosis, NASH liver and lung tumor tissues", "format": "in vivo, mouse", "details": "lung cancer tissues", "procedure": "For let-7a qPCR, 10 ng of total RNA was reverse transcribed to cDNA in a reaction volume of 10 μl using miRCURY LNA RT Kit (QIAGEN, 339340). Quantitative real-time PCR reactions were carried out using miRCURY LNA SYBR Green PCR Kit (QIAGEN, 339346) and a let-7a-specific primer (Has-Let-7a-5p miRCURY LNA miRNA PCR Assay, QIAGEN, 339306/YP00205727) in a Bio-Rad iCycler. Gene expression levels were normalized against U6 (U6 snRNA v2 miRURY LNA miRNA PCR Assay, QIAGEN, 339306/YPO2119464, QIAGEN)."}, "[4]": {"tested_on": "TET3", "assay": "TET3 protein in mouse peritoneal macrophages", "format": "cell-based", "details": "10 μM", "procedure": "For cultured mouse peritoneal macrophages, cells were primed with 30 ng/ml of TGF-β1 (R&D Systems, 7666-MB0-005) for 48 h (to increase TET3 expression) before Bobcat339 treatment. Bobcat339 (or DMSO) was added at a final concentration of 10 μM, followed by RNA and protein extraction at time points indicated in the figure legends.\nCells were homogenized in situ using a pipette tip in 2×SDS-sample buffer with 10% β-mercaptoethanol at RT followed by heating at 100 °C for 5 min with occasional vortexing. The samples were loaded onto a 4-15% gradient SDS gel (Bio-rad, 456-8086) (10 μL/well) and transferred to nitrocellulose membranes, followed by Western blot analysis. The antibodies used were anti-TET3 (diluted at 1:1000, GeneTex, GTX121453 for human; diluted at 1:1000, Active Motif, 61395 for mouse), anti-TET2 (diluted at 1:1000, Proteintech, 21207-1-AP for human/mouse), anti-TGF-β1 (diluted at 1:1000, Abcam, ab215715 for human), anti-Lin28A (diluted at 1:1000, Cell Signaling, 3978S), and HRP-conjugated anti-GAPDH (dilution 1:5000; Proteintech, HRP-60004). The secondary antibody was HRP-linked Anti-rabbit IgG (dilution 1:10,000; Rockland, 611-1322)."}, "[5]": {"tested_on": "TET1", "details": "cited from earlier work"}}, "note": "“Also recorded” adds a separate entry of the source."}
{"compound": "Nc1nc(=O)n(-c2cccc(-c3ccccc3)c2)cc1Cl", "note": "[Bobcat339, 4-Amino-1-[1,1′-biphenyl]-3-yl-5-chloro-2(1H)-pyrimidinone]", "values": [{"measurement": "apoptosis (TUNEL)", "setting": "[1]", "result": "increased apoptosis; also recorded: induced apoptosis; also recorded: a significant increase in pyroptotic cell death"}, {"measurement": "apoptosis (TUNEL / Caspase-1)", "setting": "[1]; with Ad-TET3", "result": "abolished when TET3 protein was restored to control levels; also recorded: not seen when TET3 expression level was restored"}, {"measurement": "TET3-expressing (CD163 double positive) macrophages in lesions", "setting": "[2]; 2.5 mg/kg i.p. once a week", "result": "depletion of TET3/CD163-double positive cells; also recorded: depletion of TET3-expressing macrophages"}, {"measurement": "body weight", "setting": "[2]; 2.5 mg/kg i.p. once a week", "result": "no statistically significant differences were observed in body weight; also recorded: nor was there a significant difference in body weight"}, {"measurement": "endometriosis lesion volume", "setting": "[2]; 2.5 mg/kg i.p. once a week", "result": "significantly reduced the lesion volume; also recorded: a significant decrease in lesion volume; also recorded: a significantly decrease in lesion volume"}, {"measurement": "food intake / appetite in endometriosis mice", "setting": "[2]; 2.5 mg/kg i.p. once a week", "result": "the decrease was not observed; also recorded: improved appetite"}, {"measurement": "IL-1b and IL-6 expression in CD163+ macrophage-enriched areas", "setting": "[2]; 3 mg/kg i.p. once a week", "result": "a dramatic reduction in the expression of IL-1b and IL-6"}, {"measurement": "body weight", "setting": "[2]; 3 mg/kg i.p. once a week", "result": "nor was there a significant difference in body weight"}, {"measurement": "endometriosis lesion volume", "setting": "[2]; 3 mg/kg i.p. once a week", "result": "significantly reduced the lesion volume"}, {"measurement": "number of TET3-overexpressing CD163+ macrophages", "setting": "[2]; 3 mg/kg i.p. once a week", "result": "a marked decrease in the number of TET3-overexpressing CD163^+ macrophages"}, {"measurement": "let-7a miRNA levels in disease tissues", "setting": "[3]", "result": "increased"}, {"measurement": "TET3 protein", "setting": "[4]", "result": "downregulated"}, {"measurement": "inhibitory activity against TET1", "setting": "[5]; in the absence of contaminating copper (II)", "result": "negligible inhibitory activity"}, {"measurement": "inhibition of enzymatic activity of TET1", "setting": "[5]; initially reported", "result": "inhibit the enzymatic activity"}]}
